Laboratory results from patent US12629383B2, “Cannabinoid compositions with high solubility and bioavailability” (priority 2020, dated 2026).
Read-outs that look alike come from different tables or passages of the source.

Tests used:
[1] = Dissolution study, USP type II apparatus, HPLC quantification of CBD released; assay type: physicochemical; settings: 900 ml pH 6.8 phosphate buffer
Protocol: Dissolution study was performed in 900 ml volume with a USP type II apparatus at pH 6.8 phosphate buffer. HPLC analysis (as per below) was used to quantify the amount of CBD released at each time point.
• Method: High Performance Liquid Chromatography (HPLC); Shimadzu LC-2040 3D Nexera-i • Wave lenght: 220 nm • Column 100 mm*4.6 mm; 5 μm C18 (InertSustain) • Column Temperature: 25° C. • AutoSampler Temperature: 5° C. • Injection Volume: 5 μL • Flow rate: 1.0 mL/min • Mobile Phase: Methanol:Water (85:[…]) • Diluent: Methanol • Run Time: Cannabidiol=3.7 min

[2] = Animal study (pharmacokinetics), gavage, CBD blood concentration by HPLC; assay type: in vivo; settings: rat
Protocol: According to the results of the dissolution study, compositions were prepared by adhering to the ratios of the present invention.
6 rats weighing 250+/−20 grams were used per each study group and a total of 5 groups were used. The compositions were administered by gavage at the human dose equivalent of 40 mg CBD per composition.
The results were analyzed by blood draws at each of the time points over an 8 hour period. An HPLC system was used to determine the blood concentration of CBD at the specified time points. The blood concentrations were given as (μg/mL)
The average CBD blood concentration of the groups were used to determine the pharmacokinetic parameters of Cmax, AUC and Tmax.

With `C=C(C)[C@@H]1CCC(C)=C[C@H]1c1c(O)cc(CCCCC)cc1O` [CBD API, Cannabidiol] the “% CBD API Released” value ([1]; 5 min) was 1,89%, the “% CBD API Released” value ([1]; 10 min) was 1,89% and the “% CBD API Released” value ([1]; 15 min) was 2,05%. For the same compound, the “% CBD API Released” value ([1]; 30 min) was 2%, the “% CBD API Released” value ([1]; 60 min) was 2,01% and the “% CBD API Released” value ([1]; 120 min) was 1,97%. The “% CBD API Released” value ([1]; 180 min) was 2,2%, the “% CBD API Released” value ([1]; 240 min) was 2,32% and the concentration at 0 h ([2]; blood, oral, 40 mg CBD (human dose equivalent), hour 0, rats, human dose equivalent of 40 mg CBD, group average) was 0 ng/mL. For the same compound, the concentration at […] ([2]; blood, oral, 40 mg CBD (human dose equivalent), hour 0.083, rats, human dose equivalent of 40 mg CBD, group average) was 8 ng/mL, the concentration at 0.25 h ([2]; blood, oral, 40 mg CBD (human dose equivalent), hour 0.25, rats, human dose equivalent of 40 mg CBD, group average) was 11 ng/mL and the concentration at 0.5 h ([2]; blood, oral, 40 mg CBD (human dose equivalent), hour 0.5, rats, human dose equivalent of 40 mg CBD, group average) was 15 ng/mL. The concentration at 1 h ([2]; blood, oral, 40 mg CBD (human dose equivalent), hour 1, rats, human dose equivalent of 40 mg CBD, group average) was 13 ng/mL, the concentration at 2 h ([2]; blood, oral, 40 mg CBD (human dose equivalent), hour 2, rats, human dose equivalent of 40 mg CBD, group average) was 11 ng/mL and the concentration at 4 h ([2]; blood, oral, 40 mg CBD (human dose equivalent), hour 4, rats, human dose equivalent of 40 mg CBD, group average) was 8 ng/mL. It also gave a concentration at 8 h ([2]; blood, oral, 40 mg CBD (human dose equivalent), hour 8, rats, human dose equivalent of 40 mg CBD, group average) of 6 ng/mL, a Tmax ([2]; blood, po, 40 mg CBD (human dose equivalent), rats, read-out: Tmax after administration (converted)) of 30 min and an AUC(0-t) ([2]; blood, po, rats, human dose equivalent of 40 mg CBD) of 71 ng·h/mL. The Tmax ([2]; blood, po, rats, human dose equivalent of 40 mg CBD, read-out: Tmax) was 30 min and the Cmax ([2]; po, rats, human dose equivalent of 40 mg CBD, from average blood concentration) was 15 ng/mL.
